Reference: patent publication US20230172966A1, “COMPOSITION FOR THE PREVENTION AND TREATMENT OF FOLATE AND/OR VITAMIN B12 DEFICIENCY CONDITIONS, PARTICULARLY HYPERHOMOCYSTEINEMIA” (INPHA RESEARCH S.R.L., priority 2020, published 2023)

Columns and labels:
[1] = Gastric Simulated Fluid (GSF) Test; type: physicochemical
Method: Gastric Simulated Fluid (GSF) Test.
For all the experiments, physiological gastric conditions were reproduced taking into account the volume of gastric fluid on an empty stomach (35-40 mL) (Mudie D M et al. Quantification of gastrointestinal liquid volumes and distribution following a 240 mL dose of water in the fasted state. Mol Pharm. 2014 Sep. 2; 11(9):3039-47) and the fact that in the stomach, the salt concentration is different from that of blood plasma (0.25% vs 0.9%) (Sandra Klein. The Use of Biorelevant Dissolution Media to Forecast the In Vivo Performance of a Drug. AAPS J. 2010 September; 12(3): 397-406).
The effect of the alkalizing agent on gastric pH was simulated in vitro by preparing a 0.2% saline solution of NaCl and bringing the pH of the solution to around 1.2-2 with 37% hydrochloric acid diluted 1:5.
GSF was prepared using the components in table 1, all tests were performed simulating body temperature (37° C.) and performed in triplicate.
400 ml of GSF was stirred with magnetic stirrer and settled at 37° C. and the three-point digital pH meter was applied. 40 mg of Folic Acid was added to this solution.
The bright orange dispersion was stirred for 5 minutes at 200 rpm and then the stirring was stopped.
The same experiment was repeated adding 30 mg of Zinc Oxide to the same amount of folic acid. […] Such a pH was maintained in the range 5.0-5.5 also by simulating physiological acid secretion, combining 2 ml of 0.1 M HCl every 15 minutes for a total of 60 minutes.

[2] = non-ionized carboxylic acid form, in contact with gastric fluid (pH 1.5-2.0 empty, 3.5-4.5 full stomach); cited from earlier work

observation of folic acid solubility/precipitation in GSF ([1]; 40 mg Folic Acid alone in 400 ml GSF pH 1.2-2, 37° C., stirred 5 minutes at 200 rpm, observed after 10 minutes) | SMILES | observation of folic acid dissolution in GSF with Zinc Oxide ([1]; 40 mg folic acid + 30 mg Zinc Oxide in 400 ml GSF, 37° C., stirred 5 minutes at 200 rpm) | water solubility [2] [µg/mL] | pH recorded in GSF after stirring ([1]; 30 mg Zinc Oxide + 40 mg folic acid in 400 ml GSF (initial pH 1.2-2), 37° C., after 5 minutes at 200 rpm) | pH maintained under simulated physiological acid secretion ([1]; 30 mg Zinc Oxide + 40 mg folic acid in 400 ml GSF, 2 ml of 0.1 M HCl every 15 minutes for a total of 60 minutes)
complete precipitation | Nc1nc2ncc(CNc3ccc(C(=O)N[C@@H](CCC(=O)O)C(=O)O)cc3)nc2c(=O)[nH]1 [folic acid, pteroyl(mono)-glutamic acid] | translucent orange solution in the absence of precipitation | < 10 | – | –
– | [O]=[Zn] [Zinc Oxide] | – | – | 5.2 | 5.0-5.5
